These are literature values, as cited in patent publication US8791095B2, “Steroidal CYP17 inhibitors/antiandrogens” (Tokai Pharmaceuticals, Inc., priority 2009, dated 2014).

Structures are written as SMILES.

By IC50 is commonly meant the concentration at which inhibition is half-maximal.

Series [1] relates to LAPC4 human prostate tumor xenograft. The conditions noted are these: for inhibition of growth of LAPC4 xenograft (in words): in vivo.
In another series the target is T1, human CYP17 enzyme (Homo sapiens, UniProt P05093).
T1 sequence (P05093 1-508): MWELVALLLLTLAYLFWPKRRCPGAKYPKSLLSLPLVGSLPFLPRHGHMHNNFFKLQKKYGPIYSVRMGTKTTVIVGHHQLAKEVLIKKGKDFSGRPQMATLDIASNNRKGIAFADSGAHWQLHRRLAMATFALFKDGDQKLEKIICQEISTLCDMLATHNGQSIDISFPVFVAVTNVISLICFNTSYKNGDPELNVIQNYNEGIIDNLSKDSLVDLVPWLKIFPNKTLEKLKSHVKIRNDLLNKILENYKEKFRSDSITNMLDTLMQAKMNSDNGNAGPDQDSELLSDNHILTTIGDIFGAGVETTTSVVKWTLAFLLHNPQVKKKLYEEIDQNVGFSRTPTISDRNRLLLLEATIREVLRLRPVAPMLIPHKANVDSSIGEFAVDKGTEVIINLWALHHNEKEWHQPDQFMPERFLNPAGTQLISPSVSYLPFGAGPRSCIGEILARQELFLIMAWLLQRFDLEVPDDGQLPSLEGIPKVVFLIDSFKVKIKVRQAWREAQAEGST
The conditions noted are these: read-out: IC50, inhibition of human CYP17 enzyme.

Consider `C[C@]12CCC(=O)C=C1CCC1C2CC[C@]2(C)C(n3cnc4ccccc43)=CCC12` (stereo partly shown) [Compound 2, 17-(1H-benzimidazole-1-yl)androsta-4,16-diene-3-one], for which, where the note is “mice, s.c. 50 mg/kg”, the peak plasma level is reported as 5.15 ng/mL, the “terminal half-life in plasma” value was 39.93 min and the “detectability in plasma at 8 hours” value was “neither was detectable”. Further, the “inhibition of growth of LAPC4 xenograft (in words)” value in series [1] is given as “ineffective”.
As to `C[C@]12CC[C@H](O)CC1=CC[C@@H]1[C@@H]2CC[C@]2(C)C(c3cccnc3)=CC[C@@H]12` [abiraterone, 3β-hydroxy-17-(pyrid-3-yl)androsta-5,16-diene], the 50% inhibitory concentration (IC50) on human CYP17 enzyme is 3 to 6 nM.
As to `CC12CCC(O)CC1=CCC1C2CCC2(C)C(c3cncnc3)=CCC12` (stereo not drawn) [Compound 3, 3β-hydroxy-17-(5′-pyrimidyl)androsta-5,16-diene], the IC50 at human CYP17 enzyme is 500 nM.
`C[C@]12CC[C@H](O)CC1=CC[C@@H]1[C@@H]2CC[C@]2(C)C(n3cnc4ccccc43)=CC[C@@H]12` [Compound 1, 3β-hydroxy-17-(1H-benzimidazole-1-yl)androsta-5,16-diene]: the IC50 at human CYP17 enzyme is 50 nM. For the same compound, under “metabolite tentatively identified as 17-(1H-benzimidazol-1-yl)androsta-3-one”, the “conversion into a metabolite” value is listed as “rapidly converted into a metabolite”. Moreover, under “mice, s.c. 50 mg/kg”, the peak plasma level is given as 16.82 ng/mL and the “detectability in plasma at 8 hours” value is “neither was detectable”. In addition, the “efficacy compared with castration” value in series [1] (50 mg/kg, twice daily) is reported as “significantly more effective than castration”. The “reduction in the mean final tumor volume compared with controls” value in series [1] (50 mg/kg, twice daily, P=0.00065) is 93.8%. Moreover, the “inhibition of growth of LAPC4 xenograft (in words)” value in series [1] is on record as “very effective”.
